Reference: patent US10548935B2, “Composition and method for preventing, reducing, alleviating or treating idiopathic vomiting” (Mars, Incorporated, priority 2013, dated 2020)
Structures can show the parent of a compound that is named as a salt.

How the values were obtained:
h5HT3A receptor = molecular target: T1, h5HT3A receptor (Homo sapiens, UniProt P46098); test: Assays for screening 5-HT3a receptor inhibitors (FLIPR calcium assay or aequorin-assisted serotonin receptor assay; dosage response curves); assay type: cell-based
T1 construct: expressed in transfected cells
T1 sequence (P46098 24-478): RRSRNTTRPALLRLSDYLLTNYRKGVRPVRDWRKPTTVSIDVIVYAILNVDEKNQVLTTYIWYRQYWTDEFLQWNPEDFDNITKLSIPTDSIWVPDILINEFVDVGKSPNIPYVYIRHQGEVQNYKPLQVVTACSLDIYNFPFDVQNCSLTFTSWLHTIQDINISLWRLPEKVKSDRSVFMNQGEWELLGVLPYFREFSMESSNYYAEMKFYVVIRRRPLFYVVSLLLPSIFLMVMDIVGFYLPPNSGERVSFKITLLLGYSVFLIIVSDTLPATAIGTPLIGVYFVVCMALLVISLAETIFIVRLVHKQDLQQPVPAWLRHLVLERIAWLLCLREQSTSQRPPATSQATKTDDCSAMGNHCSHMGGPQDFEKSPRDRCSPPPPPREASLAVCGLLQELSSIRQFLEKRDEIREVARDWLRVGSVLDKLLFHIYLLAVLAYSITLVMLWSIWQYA
Description: Various known high through-put screening assays can be used to determine the inhibitory effects of a material on the 5-HT3a receptors.
Due to activation of 5HT3 receptor following calcium and sodium influx and the subsequent rapid intracellular calcium and sodium increase, a calcium indicator (e.g., Fluo-4 AM) or a sodium dye can therefore be readily used to detect influx Ca^+2 or Na^+ signal using the Flourometric Imaging Plate Reader (FLIPR) assay to identify agonists or antagonists of 5-HT3a receptors.
The 5-HT3a FLIPR assay can specifically be conducted by the following steps. First, […] (human embryonic kidney) cells stably expressed with h5HT3A receptor are grown in 16-18 ml growth medium in a 75 cm^2 flask for 2-3 days at 37° C. in a mammalian cell culture incubator with 5% CO2 and 90% humidity. The growth medium may contain, for example, DMEM/F12 (1:1, Invitrogen 11039) supplemented with 10% FBS (fetal bovine serum), 100 μg/ml Antibiotic/Antimycotic, and 150 ug/ml G418. The cell medium is then transferred to a 50 ml tube, and the cells are washed with 10 ml PBS. Subsequently, 2 ml of 0.05% Trypsin-EDTA is added to detach cells, and the above cell medium is added back to flask to inactivate trypsin. Next, the cells are transferred back to the above 50 ml tube, which is centrifuged at 850 rpm for 3 minutes to remove medium. The cells obtained from centrifugation are then re-suspended with growth medium at 1-1.5 ml per flask cells. One vial of Fluo-4 AM (calcium indicator, 50 ug) is subsequently dissolved with 20 ul of Pluronic F-127, and 10 ul of Fluo-4 AM solution per flask cells is added (1 vial of Fluo-4 AM solution, 20 ul, is good for 2 flask of cells). The cells are then stained with Fluo-4 AM for 30 min at room temperature with gently shaking on a shaker, followed by addition of 45 ml of the assay buffer [HBSS with CaCl2 and MgCl2 (Invitrogen 14025), 20 mM HEPES, pH7.2] to wash cells once. Centrifugation is carried out once more at 850 rpm for 3 minutes to remove assay buffer. The resulting cell pellet is again re-suspended in Assay buffer (per flask cells with 18-20 ml assay buffer). Ninety microliters of cells (50K cells/well) is loaded in the 96-well plates that are pre-loaded with the compounds to be tested (10 ul of 1 mM test materials, the final concentration of the test materials will be 100 uM). The plates are placed at room temperature for 15-30 min in dark and then transferred to FLIPR-384 instrument (Molecular Devices). […] The calcium signal of the test plates is finally recorded by the FLIPR program. The average and standard deviations are calculated using Excel, and the background (buffer) is subtracted. The percentage (%) inhibition is then calculated as
[formula] A test material will be considered as having an inhibitory effect against the 5-HT3a receptor if the percentage inhibition calculated is greater than 40%.
Aequorin is a photo-protein originating from the Jellyfish Aequorea Victoria. It is initially translated as an apo-enzyme requiring the hydrophobic group coelenterazine to initiate the conversion to aequorin. Upon binding of calcium, the coelenterazine is oxidized by aequorin into coelenteramide (BFP) resulting in the emission of blue light and CO2. Therefore, it is particularly useful for visualizing or detecting influx Ca^+2 signal.
After 18-24 h of culture, the cells are detached gently by flushing with their cell culture medium. Washing with an additional 10 mLs of cell culture media will ensure that optimum number of cells is captured. The cells are then centrifuged at 150×g, counted and re-suspended at 1×10^6 cells/mL in BSA medium [DMEM/Ham's F12 (with 15 mM HEPES, L-glutamine, without phenol red) culture medium (Invitrogen, Cat. No. 11039-021)+10% protease-free BSA (Sigma Aldrich, Cat. No. A9205) in H2O with a final BSA concentration of 0.1%] in a Falcon tube. Coelenterazine is added at a final concentration of 5 μM in assay medium.

NK-1 receptor = molecular target: T2, NK-1 receptor (Homo sapiens, UniProt P25103); test: Tango GPCR cell-based assay, TACR1-bla U2OS cells, NK-1 receptor inhibitors; conditions: 1 nM SAR9 Substance P agonist
T2 construct: host or cells: U2OS (Tango TACR1-bla)
T2 sequence (P25103 whole entry): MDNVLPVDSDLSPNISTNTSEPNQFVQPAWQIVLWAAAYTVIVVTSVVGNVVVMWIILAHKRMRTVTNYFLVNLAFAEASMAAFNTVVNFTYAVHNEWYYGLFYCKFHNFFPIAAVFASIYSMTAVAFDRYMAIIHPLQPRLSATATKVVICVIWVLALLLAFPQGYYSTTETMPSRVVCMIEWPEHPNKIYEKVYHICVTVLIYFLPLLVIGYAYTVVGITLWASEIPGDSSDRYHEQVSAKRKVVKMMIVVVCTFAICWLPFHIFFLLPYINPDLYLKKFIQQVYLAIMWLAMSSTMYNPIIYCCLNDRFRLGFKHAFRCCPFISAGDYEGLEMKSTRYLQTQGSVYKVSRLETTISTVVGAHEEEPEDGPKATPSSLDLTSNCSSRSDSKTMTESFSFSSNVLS
Protocol: Various known high through-put screening assays can also be used to determine the inhibitory effects of a material on the NK-1 receptors.
One exemplary assay is the Tango™ G-Protein Coupled Receptors (GPCR) cell-based assays by Invitrogen. First, TACR1-bla U2OS cells (from Invitrogen) are cultured in McCoy's medium. The cultured cells are then plated in DMEM into 96-well plates (15,125 cells/well in 90 uL/well). After 16-24 hours, the cells are treated with test materials or positive control antagonist (which is 100 nM Aprepitant) and then incubated for 30-60 minutes at 37° C. in 5% CO2. Subsequently, the cells are treated with 1 nM SAR9 Substance P agonist and incubated again for 5 hours at 37° C. in 5% CO2. The plates are removed from the incubator and equilibrated at room temperature for 15 minutes. During the equilibration step, the LiveBlazer substrate detection solution (from Invitrogen) is prepared. Six times of substrate mixture is added to each well, followed by incubating the plates in the dark at room temp for 2 hours. The plates are read by the Envision microplate reader in 2 channels using the “Geneblazer 451” protocol, which include a blue channel (Excitement at 405 and Emission at 460) and a green channel (Excitement at 405 and Emission at 535).
FIGS. 45-70 show the NK-1 dosage response curves of compounds described hereinabove with high NK-1 inhibitory effect.

| Compound | 5-HT3a receptor inhibitory effect (h5HT3A receptor) | cell toxicity (Cell toxicity) | NK-1 receptor inhibitory effect (NK-1 receptor) |
| --- | --- | --- | --- |
| CCOc1ccc2c(c1)C(C)=CC(C)(C)N2 [Ethoxyquin] | surprisingly high | little or no | – |
| CCCCCCCC1CCCC(=O)O1 (centres unmarked) [Delta-dodecalactone] | surprisingly high | little or no | – |
| CC(=O)C=Cc1ccccc1 [Benzylidenacetone] | – | – | surprisingly high |
| CCCCOC(=O)CC(O)(CC(=O)OCCCC)C(=O)OCCCC [Tributyl citrate] | surprisingly high | little or no | – |
| O=C(CCc1ccc(O)cc1)c1c(O)cc(O)cc1O [Phloretin] | surprisingly high | little or no | – |
| CCCCCC/C=C\CCCCCCCC(=O)O [Palmitoleic acid] | surprisingly high | little or no | – |
| O=C(/C=C/C=C/c1ccc2c(c1)OCO2)N1CCCCC1 [Piperine] | – | little or no | – |
| CCCOC(=O)c1ccc(O)cc1 [N-propyl-4-hydroxybenzoate] | surprisingly high | – | – |
| c1ccc(CCCc2ccccn2)cc1 [Cortex pyridine, 2-(3-phenylpropyl)pyridine] | surprisingly high | little or no | – |
| Vetiverol | surprisingly high | little or no | – |
| Cc1c(O)ccc(O)c1C [2,3-dimethyl-1,4-benzenediol] | surprisingly high | little or no | – |
| CCCCCC(=Cc1ccccc1)CO [Alpha-amylcinnamyl alcohol] | surprisingly high | little or no | – |
| CCCCOCc1ccc(O)c(OC)c1 [Vanillyl butyl ether] | surprisingly high | little or no | – |
| CC/C=C\C/C=C\C/C=C\C/C=C\C/C=C\CCCC(=O)O [Eicosapentaenoic acid] | – | little or no | – |
| CCCCCCCCCC1CCCC(=O)O1 (centres unmarked) [Delta-tetradecalactone] | surprisingly high | little or no | – |
| C=C1CC[C@H](O)C/C1=C/C=C1\CCC[C@]2(C)[C@@H]([C@H](C)CCCC(C)C)CC[C@@H]12 [Cholecalciferol VD3, Cholecalciferol] | surprisingly high | – | – |

| Compound | 5-HT3a receptor inhibitory effect (h5HT3A receptor) | cell toxicity (Cell toxicity) | NK-1 receptor inhibitory effect (NK-1 receptor) |
| --- | --- | --- | --- |
| COc1ccc(-c2coc3cc(O)cc(O)c3c2=O)cc1 [Biochanin A] | surprisingly high | little or no | – |
| CC(=O)/C=C/C1C(C)=CCCC1(C)C (stereo not drawn) [Alpha-lonone] | surprisingly high | little or no | – |
| CC(C)=CCC[C@](C)(O)C1CC=C(C)CC1 (some centres unmarked) [Bisabolol] | surprisingly high | little or no | – |
| CC(C)[C@@H]1CC[C@@H](C)C[C@H]1OCC(O)CO (some centres unmarked) [Menthoxypropanediol] | surprisingly high | – | – |
| O=c1cc(-c2ccccc2)oc2ccccc12 [Flavone] | surprisingly high | little or no | – |
| CCCCCC1C(=O)CCC1CC(=O)OC (centres unmarked) [Methyl dihydrojasmonate] | surprisingly high | little or no | – |
| CCCCCCCCCCC/C=C\CCCCC(=O)O [Petroselinic acid] | surprisingly high | little or no | – |
| CCCCCCCC1CC(C)OC1=O (centres unmarked) [3-heptyldihydro-5-methyl-2(3H)-furanone] | surprisingly high | little or no | – |
| C=C(C)[C@@H]1CCC2=CC(=O)C[C@@H](C)[C@]2(C)C1 [Nootkatone] | surprisingly high | little or no | – |
| CC1=C(CCC(=O)O)c2cc3[nH]c(cc4nc(cc5[nH]c(cc1n2)c(C)c5C(C)O)C(C)=C4C(C)O)c(C)c3CCC(=O)O (centres unmarked) [Hematoporphyrin dihydrochloride] | – | little or no | – |
| CC(C)=CCCC(C)=CCCC(C)=CC=O [Farnesal] | surprisingly high | little or no | – |
| Cc1cc2nc3c(=O)[nH]c(=O)nc-3n(C[C@H](O)[C@H](O)[C@H](O)CO)c2cc1C [Riboflavin VB2, Riboflavin] | surprisingly high | – | – |
| OCCCCCCCCCCCCCCO [1,14-Tetradecanediol] | surprisingly high | little or no | – |
| C[C@@H]1CC[C@H]2C(C)(C)[C@H]3C[C@@]12CC[C@@]3(C)O [(+)-cedrol] | surprisingly high | little or no | – |
| CCCCCCCCC(=O)NCc1ccc(O)c(OC)c1 [Nonivamide] | surprisingly high | little or no | – |
| CCCCCCCCC1CCC(=O)O1 (centres unmarked) [Gamma-dodecalactone] | surprisingly high | little or no | – |
